Measurements reported in patent US12221422B2, “Compounds and their use for the treatment of alpha1-antitrypsin deficiency” (CENTESSA PHARMACEUTICALS (UK) LIMITED, priority 2018, dated 2025).

Tests used:
[1] = test system: TA98, TA100, WP2 uvrA, TA1535, TA1537 bacterial strains; assay: Bacterial reverse mutation test; conditions: up to 5000 μg/plate, presence and absence of S-9 mix
Experimental: The purpose of the bacterial reverse mutation test is to assess the mutagenic potential of the test item by its ability to revert the specified bacterial strains from auxotrophic growth to prototrophy. The assay detects point (gene) mutations at specific histidine or tryptophan loci, which may be induced by compounds that cause base pair substitutions or frameshift mutations in the genome of these organisms. Assays were performed in the presence and absence of an exogenous mammalian oxidative metabolising system (S-9 mix, a liver post-mitochondrial fraction derived from the livers of Aroclor 1254 treated rats), to mimic mammalian metabolism. The test methodology was based on established procedures for bacterial mutagenicity testing.
N,N-dimethyl-4-((6-oxopyrimidin-1(6H)-yl)methyl)benzamide was tested up to the guideline regulatory maximum dose level of 5000 μg/plate in all strains in the presence and absence of […].
There were no increases in revertant numbers, greater than the defined fold-increases (to twice the relevant negative control value for TA98, TA100 or WP2 uvrA or three times the relevant negative control value for TA1535 or TA1537), in any strain at any dose level of N,N-dimethyl-4-((6-oxopyrimidin-1(6H)-yl)methyl)benzamide, in the presence or absence of S-9 mix, under plate incorporation conditions.

Aqueous solubility = assay type: physicochemical; conditions: thermodynamic from solid; water, shaken for 5 minutes until clear solution
Experimental: Compounds of the invention were shaken for 5 minutes with increasing amounts of water until a clear solution had formed. Using this method the solubility of N,N-dimethyl-4-((6-oxopyrimidin-1(6H)-yl)methyl)benzamide was greater than 100 mg/ml.

human M A1AT = target: T1, human M A1AT (Homo sapiens, UniProt P01009); assay: A1AT cell secretion assay using HEK-M cells (ELISA); assay type: cell-based; conditions: 10 μM, 48 h
T1 construct: expressed in transfected cells; host or cells: HEK-M (HEK-EBNA cells containing the M A1AT plasmid)
T1 sequence (P01009 25-418): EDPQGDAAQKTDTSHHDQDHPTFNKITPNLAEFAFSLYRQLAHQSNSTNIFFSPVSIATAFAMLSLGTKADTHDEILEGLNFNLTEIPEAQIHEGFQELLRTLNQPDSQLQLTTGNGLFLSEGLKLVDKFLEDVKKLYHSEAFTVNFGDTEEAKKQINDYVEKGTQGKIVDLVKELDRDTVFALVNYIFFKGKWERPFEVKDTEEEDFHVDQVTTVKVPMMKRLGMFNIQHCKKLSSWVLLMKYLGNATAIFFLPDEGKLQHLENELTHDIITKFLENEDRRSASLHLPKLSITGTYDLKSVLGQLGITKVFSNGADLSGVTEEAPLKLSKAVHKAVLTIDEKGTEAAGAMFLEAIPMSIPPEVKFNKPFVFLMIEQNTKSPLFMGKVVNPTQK
Experimental: HEK-M cells, a human embryonic kidney cell line stably transfected with the human M A1AT gene, were plated into 96 well plates (3.0×10^5 cells/ml with 200 μl of media/well) overnight at 37° C. in a humidified atmosphere containing 5% CO2. Following incubation cells were washed with 200 μl serum-free media three times and media was replaced with serum-free media containing either vehicle, 10 μM suberanilohydroxamic acid (SAHA) or a compound of the invention (at 10 μM) in replicates of six for 48 h in a 37° C. incubator in a final volume of 200 μl. […]
Briefly, a 96 well plate was coated with human A1AT capture antibody overnight at room temperature (1:180 dilution from stock, 100 μl final volume/well). […] After which, 50 μl stop solution (2M H2SO4) was added and optical density (OD) of each well was read at 450 nm with 570 nm blank subtracted from each well using a microplate reader. A 4 parameter logistic curve was constructed using GraphPad Prism 7 and A1AT concentrations were determined in each sample by interpolation from a standard curve and multiplying by the appropriate dilution factor.
The amount of A1AT secreted from transfected HEK-EBNA cells into the media was measured by ELISA. […]

With `CN(C)C(=O)c1ccc(Cn2cnccc2=O)cc1` [N,N-dimethyl-4-((6-oxopyrimidin-1(6H)-yl)methyl)benzamide] the “mutagenicity (revertant numbers)” value ([1]; all strains, plate incorporation) was “not mutagenic”, the “toxicity to bacterial strains” value [1] was “no evidence of toxicity” and the solubility at 5 min (Aqueous solubility) was > 100 mg/mL. The “secretion of M A1AT as measured by ELISA” value (human M A1AT) was “does not stimulate secretion of M A1AT”.
